According to patent publication US6380178B1, “Cyclic regimens using cyclocarbamate and cyclic amide derivatives” (American Home Products Corporation, priority 1999, dated 2002):

| melting point [°C] | Structure (SMILES) |
| --- | --- |
| 149 to 150 | CC1(C)OC(=O)Nc2sc(-c3cccc(Cl)c3)cc21 [Example 1, 6-(3-chlorophenyl)-1,4-dihydro-4,4-dimethyl-2H-thieno[2,3-d][1,3]oxazine-2-one] |
| 123 to 125 | CC1(C)OC(=O)Nc2cc(-c3cccc(Cl)c3)sc21 [Example 2, 6-(3-chlorophenyl)-1,4-dihydro-4,4-dimethyl-2H-thieno[3,2-d][1,3]oxazine-2-one] |
